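How tested: cells in 96-well plates exposed to compound for 48 hours at five concentrations. At the TGI there is no net growth.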

Assay in all cases: inhibition of tumour cell growth, NCI panel, 48 h
Assay [1] relates to BT-549 breast.
Assay [2] concerns DU-145 prostate.
Assay [3] has as its system OVCAR-5 ovarian.
The subject of assay [4] is A549 NSCLC.
In assay [5] the test system is EKVX NSCLC.
Assay [6] relates to NCI-H522 lung.
Assay [7] deals with SK-OV-3 ovarian.
The subject of assay [8] is ACHN renal.
For assay [9], the system named is PC-3 prostate.
Assay [10] concerns UACC-257 melanoma.
The test system of assay [11] is HT29 colon.
The test system of assay [12] is HCT-15 colon.
The subject of assay [13] is MDA-MB-231 breast.
In assay [14] the test system is SF-295 CNS.
Assay [15] has as its system U251 CNS.
The test system of assay [16] is SK-MEL-28 melanoma.
In assay [17] the test system is A498 renal.
In assay [18] the test system is CAKI-1 renal.
For assay [19], the system named is HS 578T breast.
In assay [20] the test system is SR leukemia.

With `COC(=O)C1=C(OC(=O)/C(=C/c2ccccc2)c2ccc(Cl)cc2Cl)C(C(=O)OC)[C@@]2(O)[C@@H](C(=O)OC)[C@H](C)C[C@@H]1[C@@H]2C(=O)OC` (stereo not given in full), the TGI in [1], in [2], in assay [3], in assay [4], in assay [5] and in assay [6] was above 100 µM in each case. The TGI in assay [7], in assay [8], in assay [9], in [10], in [11] and in [12] was above 100 µM throughout. The TGI in [13], in assay [14], in assay [15], in [16], in assay [17] and in assay [18] was above 100 µM in each case. Further, the TGI in assay [19] and in assay [20] was above 100 µM in each case.

As for `CS(=O)(=O)C(C#N)c1nc2ccccc2nc1Cl` (stereo not given), the TGI in assay [1], in assay [2], in [3], in assay [4], in assay [5] and in [6] was above 100 µM each time. For the same compound, the TGI in assay [7], in [8], in [9], in [10], in [11] and in assay [12] was above 100 µM in each case. In addition, the TGI in [13], in assay [14], in [15], in assay [16], in assay [17] and in assay [18] was above 100 µM each time. Also, the TGI in [19] and in [20] was above 100 µM throughout.

For `CCOC(=O)c1sc(=S)n(-c2ccc(Cl)cc2)c1-n1cc(-c2ccccc2)c(C#N)c1N`, the TGI in [1] was 48.1 µM; in assay [2], 21.2 µM; in [3], above 100 µM; in assay [4] it was 42.4 µM; in [5] it was 94.7 µM; in assay [6] it was 14.5 µM. Moreover, the TGI is 36 µM in assay [7]; 40.9 µM in assay [8]; 27 µM in assay [9]; above 100 µM in assay [10]; above 100 µM in assay [11]; above 100 µM in assay [12]. Also, the TGI in assay [13] is 60.1 µM; in [14] it was 33.6 µM; in assay [15], 32.7 µM; in assay [16] it was above 100 µM; in assay [17] it was 53.9 µM; in [18], above 100 µM. Besides, the figures for the TGI in assay [19] and in [20] were 14.5 µM and 46.7 µM, respectively.

For `CS(=O)(=O)Nc1ccc2ccccc2c1-c1c(NS(C)(=O)=O)ccc2ccccc12`, the TGI in assay [1], in assay [2], in assay [3], in [4], in assay [5] and in assay [6] was above 25 µM each time. The TGI in assay [7], in assay [8], in [9], in [10], in assay [11] and in [12] was above 25 µM in each case. The TGI in [13], in assay [14], in assay [15], in assay [16], in assay [17] and in assay [18] was above 25 µM each time. Moreover, the TGI in assay [19] and in [20] was above 25 µM in each case.

Take `O=C1/C(=C/C=C/c2ccccc2)CCC1CNc1ccccc1` (stereo not given): the TGI was above 69 µM in assay [1]; above 100 µM in assay [2]; above 100 µM in [3]; above 100 µM in assay [4]; above 100 µM in assay [5]; above 22.7 µM in assay [6]. The TGI in assay [7] was above 100 µM; in assay [8], above 100 µM; in assay [9], above 100 µM; in assay [10], above 100 µM; in assay [11] it was 63.9 µM; in assay [12], 50.1 µM. In addition, the TGI in assay [13] is 51.7 µM; in assay [14], above 100 µM; in assay [15], above 100 µM; in assay [16] it was above 100 µM; in assay [17] it was above 100 µM; in assay [18], above 100 µM. Further, the TGI in assay [19] and in assay [20] was above 100 µM in each case.

For `CC[C@@H](C)[C@H](NC(=O)[C@H](Cc1ccccc1)NCC(F)(F)F)C(=O)OC(C)(C)C`, the TGI in assay [1], in assay [2], in [3], in [4], in [5] and in assay [6] was above 100 µM in each case. Further, the TGI in assay [7], in assay [8], in assay [9], in assay [10], in [11] and in assay [12] was above 100 µM each time. In addition, the TGI in assay [13], in assay [14], in assay [15], in assay [16], in assay [17] and in assay [18] was above 100 µM each time. The TGI in assay [19] and in assay [20] was above 100 µM in each case.

Turning to `NC(=Nc1ccccc1Cl)c1ccccc1N`, the TGI in assay [1], in assay [2], in assay [3], in assay [4], in assay [5] and in [6] was above 100 µM in each case. The TGI in assay [7], in assay [8], in assay [9], in [10], in [11] and in [12] was above 100 µM throughout. The TGI in assay [13], in assay [14], in assay [15], in assay [16], in assay [17] and in [18] was above 100 µM throughout. In addition, the TGI in assay [19] and in assay [20] was above 100 µM in each case.

Turning to `COc1c(=O)cc2cc[nH]c3cc[nH]c1c23`, the TGI in assay [1] was above 100 µM; in [2] it was above 100 µM; in [3] it was above 100 µM; in assay [4], above 100 µM; in assay [5] it was above 100 µM; in assay [6], 12.1 µM. In addition, the TGI in assay [7], in [8], in assay [9], in assay [10], in assay [11] and in [12] was above 100 µM each time. For the same compound, the TGI in [13], in [14], in [15], in assay [16], in [17] and in assay [18] was above 100 µM throughout. For the same compound, the TGI in assay [19] and in [20] was above 100 µM throughout.

In the case of `CC(C)CCNC(=O)c1ccc(CNC(=O)/C=C/c2cccc(Oc3ccccc3)c2)cc1`, the TGI in assay [1], in [2], in assay [3], in assay [4], in [5] and in assay [6] was above 100 µM in each case. The TGI in [7] is 98.3 µM; in [8], above 100 µM; in [9], above 100 µM; in assay [10], above 100 µM; in [11] it was above 100 µM; in assay [12], above 100 µM. For the same compound, the TGI was 77.5 µM in assay [13]; above 100 µM in assay [14]; above 100 µM in assay [15]; above 100 µM in [16]; above 100 µM in assay [17]; above 100 µM in [18]. The TGI in assay [19] and in [20] was above 100 µM each time.

In the case of `Cc1cc(C)nc(NS(=O)(=O)c2ccc(Nc3c4ccccc4nc4ccc(C(=O)Nc5ccc(S(N)(=O)=O)cc5)cc34)cc2)n1`, the TGI in assay [1] is 73.5 µM; in assay [2], above 100 µM; in [3], above 100 µM; in assay [4] it was above 100 µM; in assay [5], above 100 µM; in [6], above 100 µM. Also, the TGI in assay [7], in assay [8], in assay [9], in assay [10], in [11] and in assay [12] was above 100 µM each time. The TGI in [13] is 52.6 µM; in [14] it was above 100 µM; in [15] it was above 100 µM; in assay [16] it was above 100 µM; in assay [17], above 100 µM; in assay [18] it was above 100 µM. Moreover, the TGI in assay [19] and in assay [20] was above 100 µM throughout.
